“And” between values parts separate entries of the source, which are not always exact repeats. Identical values can stand only once. Like-named read-outs stand apart in the source and are kept apart here.
Tests used:
[1] = test system: CYP1A2, CYP2B6, CYP2C19 and CYP3A4; experiment: Summed Supersome CYP kinetics scaled to whole liver; format: in vitro ADME, human
Method: (§1) The in vivo Kmi values were assumed to be equal to the apparent Kmi(app) values (µM) obtained in the in vitro incubations, while the in vivo Vmaxi for each CYP isoform was derived from their corresponding apparent CYP isoform Vmaxi(app) (pmol/min/pmolCYP) using Eq. 3:3 Vmaxi=Vmaxiapp×CYPiabundance×ISEF×60×MPL×1000×VL/1,000,000,
To gain a better insight in the contribution of each CYP to the metabolism of CPF in vivo at different concentrations of CPF, the apparent Supersome™ kinetic data were scaled toward the whole liver according to Eq. 3.
To evaluate the performance of the Supersomes™ together with the ISEF to predict the bioactivation of CPF, the sum of the scaled CE of the four individual Supersomes™ was compared to the CE obtained for the pooled HLMs (for both non-biphasic and biphasic scenarios).

RBC AChE = settings: ref USEPA (2014); cited from earlier work
[2] = cited from earlier work
CYP2B6 [3] = biological target: T1, CYP2B6 (Homo sapiens, UniProt P20813); settings: bioactivation of CPF, ref Foxenberg et al. [2007]; cited from earlier work
T1 sequence (P20813 1-491): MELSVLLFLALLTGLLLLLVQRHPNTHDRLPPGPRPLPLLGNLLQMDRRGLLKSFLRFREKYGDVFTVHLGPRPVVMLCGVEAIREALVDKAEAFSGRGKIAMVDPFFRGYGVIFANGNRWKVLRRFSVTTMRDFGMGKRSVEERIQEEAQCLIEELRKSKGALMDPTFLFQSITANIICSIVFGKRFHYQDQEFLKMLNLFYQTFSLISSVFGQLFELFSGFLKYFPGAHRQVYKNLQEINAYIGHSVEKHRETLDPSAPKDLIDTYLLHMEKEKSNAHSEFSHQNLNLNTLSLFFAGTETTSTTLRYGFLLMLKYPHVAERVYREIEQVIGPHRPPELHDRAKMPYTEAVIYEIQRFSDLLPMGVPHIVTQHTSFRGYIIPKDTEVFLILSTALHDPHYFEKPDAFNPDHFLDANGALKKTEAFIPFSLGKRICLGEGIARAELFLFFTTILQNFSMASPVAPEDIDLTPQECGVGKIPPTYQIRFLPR

CYP2B6 [4] = biological target: T1, CYP2B6; experiment: Supersome CYP2B6 kinetic incubations; format: in vitro ADME; parameters: purchased Corning (Amsterdam, The Netherlands); host or cells: baculovirus-transfected insect cells; settings: for Scaled Vmax(app): CYP2B6 scaled to whole liver by Eq. 3; for Vmax (app) / Km: Supersome CYP2B6; for Km: human, recombinant CYP2B6 Supersomes, pH 7.4, Km(app)
Method: The final incubations were carried out in 50 mM Tris–HCl (pH 7.4) containing 5 mM MgCl2, 1 mM EDTA (as an A-esterase PON1 inhibitor) (Bizoń and Milnerowicz [2018]), 50 µM iso-OMPA (as a B-esterases inhibitor) (Lane et al. [2006]), Supersome™ isoform (at final concentration of 0.005 nmol CYP/ml for 1A2, 0.001 nmol CYP/ml for 2B6, 0.01 nmol CYP/ml for 2C19, and 0.01 nmol CYP/ml for 3A4) and CPF at different final concentrations (0.05, 0.1, 0.25, 0.5, 1, 5 and 10 µM for 1A2, 0.05, 0.1, 0.25, 0.5, 1, 5 10 and 25 µM for 2B6, 1, 2.5, 5, 10, 25 and 50 µM for 2C19, and 0.5, 1, 2.5, 5, 10, 25 and 50 µM for 3A4), which were added from 100 times concentrated stock solutions in ACN. After 1 min preincubation in a 37 °C water bath, 5 µl NADPH (final concentration 1 mM) was added to the incubation system. Control incubations were performed by replacing NADPH with the same amount of Tris–HCl (pH 7.4). The total volume of the incubation mixtures was 200 µl. The incubations lasted for 2 min at 37 °C and were terminated by addition of 50 µl ice cold ACN and subsquently put on ice. After that, samples were centrifuged at 16,000 g (4 ℃) for 5 min and supernatants of samples were separated into two equal portions for Ultra-Performance Liquid Chromatography-Photodiode Array (UPLC-PDA) and Liquid Chromatography Mass Spectrometry (LC–MS/MS) analysis, respectively.
To normalize for differences in intrinsic CYP activity between Supersome™ and pooled HLMs and enable scaling of the activities to the in vivo situation, CYP-specific ISEF values need to be established. […] The incubation method was similar as used for the CPF kinetic incubation assay described above, except that certain incubation conditions were replaced by the conditions listed in Table 1. The samples obtained were analyzed by UPLC-PDA for acetaminophen, 4-hydroxymephenytoin, and 6β-hydroxytestosterone formation catalyzed by 1A2, 2C19 and 3A4, or LC–MS/MS for (±)-hydroxybupropion formation catalyzed by 2B6.
As mentioned before, the in vitro apparent kinetic parameters (Vmax and Km) for pathway 1 and pathway 2 in the HLM-based approach, and pathway 3 in both approaches were all obtained directly from reported studies using pooled HLMs (Buratti et al. [2003]; Sams et al. [2004]; Zhao et al. [2019]). Therefore, no extra calculations were required to define these parameters. The kinetic parameters for the ISEF calculation, pathway 1 and 2 in the Supersome™-based approach, and pathway 4 in both approaches (25 individuals) were all obtained by fitting the experimental data to the Michaelis–Menten model using GraphPad (GraphPad Prism 5.0 software, San Diego, CA, USA). It should be noted that the kinetic parameters for pathway 4 used in the two approaches were calculated as mean of the kinetic parameters (Vmax and Km) obtained using 25 individual HP samples (with correction for total protein concentration of each plasma sample).
as §1

## CCOP(=S)(OCC)Oc1nc(Cl)c(Cl)cc1Cl [CPF, Chlorpyrifos]
[1]; bioactivation of CPF, sum of four individual Supersomes
  summed scaled CE of Supersomes: 1578 L/h
[1]; high affinity component
  overall extrapolated Vmax from Supersome data versus HLM-derived Vmax: 1.9 fold
[1]; low affinity component
  overall extrapolated Vmax from Supersome data versus HLM-derived Vmax: 0.9 fold
RBC AChE
  BMDL10 (EPA, derived from human PBPK-PD model): 0.47 mg/kg bw
[2]; PBK model input, mean, ref Bouchard et al. ([2005])
  ka (absorption rate constant): 0.46 h⁻¹
[2]; mean of the reported fa values, ref Timchalk et al. ([2002]), Nolan et al. ([1984])
  fa (fractional absorption), mean: 0.462 and 0.46
[2]; ref Nolan et al. ([1984])
  fa (fractional absorption): 0.7
[2]; ref Timchalk et al. ([2002])
  fa (fractional absorption): 0.224
CYP2B6 [3]
  Km: 0.81 µM
CYP2B6 [4]; Pathway 1 (CPF to CPO)
  Scaled Vmax(app): 203.94 µmol/h
  Vmax (app): 7.76 pmol/min/pmolCYP
CYP2B6 [4]; Pathway 2 (CPF to TCPy)
  Scaled Vmax(app): 144.28 µmol/h
  Vmax (app): 5.49 pmol/min/pmolCYP
CYP2B6 [4]; Pathway 1 (bioactivation of CPF to CPO)
  Km: 0.14 µM
CYP2B6 [4]; Pathway 2 (detoxification of CPF to TCPy)
  Km: 1.28 µM
